Source: publication PMC3225262, “PeptX: Using Genetic Algorithms to optimize peptides for MHC binding” (BMC Bioinformatics, 2011)
Where no end group is shown, it is not given here.

Target: HLA-A*02:01 (Homo sapiens, UniProt P04439, D140Y/D185E/D98H/E176V/E277Q/G131W/G231S/I119V/I121R/I166T/I218V/L300P/L318F/N151K/N90K/P208A/P217A/Q86G/Q94H/R138H/R169H/T345S)
Assay: experimental peptide/MHC binding assay of the consensus peptides
Conditions: consensus peptides optimized for HLA-A*02:01; values below 0.5 nM are beyond the range of sensitivity of the assay; tested by co-operation partner (J. Sidney); read-out: experimental peptide/MHC binding affinity expressed as IC50
From the text: Since a validation on the basis of existing public experimental data was not possible we were able to find a co-operation partner who tested our consensus peptides for experimental peptide/MHC binding affinity.
The authors thank J. Sidney for testing the IC50 binding affinities of the consensus peptides.

Sequence | IC50
MLWTMVFTV [MLWTMVFTV] | < 0.5 nM
FLWEVTPTV [FLWEVTPTV] | 1.1 nM
YLAEGLASL [YLAEGLASL] | 1.3 nM
WWWFFWYVW [WWWFFWYVW] | 45 nM
YMMEWMWYV [YMMEWMWYV] | < 0.5 nM
